# Measurements: patent US20140235616A1, “PYRAZOLOQUINOLINONE DERIVATIVES, PREPARATION THEREOF AND THERAPEUTIC USE THEREOF” (SANOFI, priority 2011, published 2014)
# Biological target: T1, human MetAP2 (Homo sapiens, UniProt P50579)
# T1 construct: made in house; host or cells: Sf9 insect cells (baculovirus)
# Assay: MetAP2 enzymatic screening test (isolated enzyme, Met-Pro-Arg-pNa substrate, absorbance at 405 nm)
# Type: biochemical
# Conditions: read-out: % inhibition hMETAP2 at 100 nM
# Procedure: The compounds according to the invention underwent biochemical studies in order to determine their capacity to inhibit the enzyme methionine-aminopeptidase2 (enzymatic test on isolated enzyme).
# MetAP2 Enzymatic Screening Test
# For the enzymatic test, human MetAP2 protein was obtained from a culture supernatant of insect cells (sf9) infected with MetAP2 recombinant baculovirus.
# Before performing the experiment, dialysis of the MetAP2 supernatant is performed over 24 hours at 4° C. in a buffer (10 mM Hepes, 100 mM KCl, 10% glycerol, pH 7.4) in the presence of EDTA (1 mM) over the first 12 hours.
# The dialysis supernatant is recovered and manganese, used as cofactor, is added to a final concentration of 300 μM.
# The enzymatic test is a test in two steps.
# Consequently, the second step consists in reacting the peptides cleaved in the preceding step with a second peptidase in order to release the chromophore.
# T1 sequence (P50579 whole entry): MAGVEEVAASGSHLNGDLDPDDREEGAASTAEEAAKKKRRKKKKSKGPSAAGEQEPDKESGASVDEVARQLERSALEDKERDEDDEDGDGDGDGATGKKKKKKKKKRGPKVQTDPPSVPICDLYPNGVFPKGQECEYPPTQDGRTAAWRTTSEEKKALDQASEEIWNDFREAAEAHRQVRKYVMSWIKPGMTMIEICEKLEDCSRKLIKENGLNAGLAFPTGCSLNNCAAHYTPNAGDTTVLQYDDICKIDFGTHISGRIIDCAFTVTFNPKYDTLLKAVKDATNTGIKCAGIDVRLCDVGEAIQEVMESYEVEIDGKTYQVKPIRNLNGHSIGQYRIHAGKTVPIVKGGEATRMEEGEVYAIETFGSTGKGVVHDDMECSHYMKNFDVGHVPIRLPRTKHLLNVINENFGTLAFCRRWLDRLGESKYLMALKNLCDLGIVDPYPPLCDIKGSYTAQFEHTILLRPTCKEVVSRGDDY
row,Structure (SMILES),inhibition at 0.1 µM [%]
1,"CC(=O)Nc1ncc(C)cc1-c1ccc2c3[nH]ncc3c(=O)n(CC(F)(F)F)c2c1 [Compound 130, N-{5-methyl-3-[4-oxo-5-(2,2,2-trifluoroethyl)-4,5-dihydro-1H-pyrazolo[4,3-c]quinolin-7-yl]pyrid-2-yl}acetamide]",48
2,"COc1ccnc(-c2ccc3c4[nH]ncc4c(=O)n(CC(F)(F)F)c3c2)c1 [Compound 145, 7-(4-methoxypyrid-2-yl)-5-(2,2,2-trifluoroethyl)-1,5-dihydro-4H-pyrazolo[4,3-c]quinolin-4-one]",42
3,"CCn1c(=O)c2cn[nH]c2c2ccc(-c3ccc(C(C)N(C)C)cc3)cc21 (stereo not shown) [Compound 15, 7-[4-(1-dimethylaminoethyl)phenyl]-5-ethyl-1,5-dihydro-4H-pyrazolo[4,3-c]quinolin-4-one]",74
4,"Cc1cnc(F)c(-c2ccc3c4[nH]ncc4c(=O)n(CC(F)(F)F)c3c2)c1 [Compound 135, 7-(2-fluoro-5-methylpyrid-3-yl)-5-(2,2,2-trifluoroethyl)-1,5-dihydro-4H-pyrazolo[4,3-c]quinolin-4-one]",45
5,"CCC(=O)Nc1ccc(-c2ccc3c4[nH]ncc4c(=O)n(CC(F)(F)F)c3c2)c(C)n1 [Compound 147, N-{6-methyl-5-[4-oxo-5-(2,2,2-trifluoroethyl)-4,5-dihydro-1H-pyrazolo[4,3-c]quinolin-7-yl]pyrid-2-yl}propionamide]",42
6,"O=c1c2cn[nH]c2c2ccc(-c3ccccc3F)cc2n1CC(F)(F)F [Compound 3, 7-(2-fluorophenyl)-5-(2,2,2-trifluoroethyl)-1,5-dihydro-4H-pyrazolo[4,3-c]quinolin-4-one]",34
7,"CCn1c(=O)c2cn[nH]c2c2ccc(-c3ccc(C(N)=O)c(Cl)c3)cc21 [Compound 33, 2-chloro-4-(5-ethyl-4-oxo-4,5-dihydro-1H-pyrazolo[4,3-c]quinolin-7-yl)benzamide]",62
8,"O=c1c2cn[nH]c2c2ccc(-c3ccc(C(O)c4ccccc4)cn3)cc2n1CC(F)(F)F (stereo not shown) [Compound 152, 7-[5-(hydroxyphenylmethyl)pyrid-2-yl]-5-(2,2,2-trifluoroethyl)-1,5-dihydro-4H-pyrazolo[4,3-c]quinolin-4-one]",41
9,"Cc1cc(-c2ccc3c4[nH]ncc4c(=O)n(CC(F)(F)F)c3c2)ccn1 [Compound 186, 7-(2-methylpyrid-4-yl)-5-(2,2,2-trifluoroethyl)-1,5-dihydro-4H-pyrazolo[4,3-c]quinolin-4-one]",43
10,"O=c1c2cn[nH]c2c2ccc(-c3cccc(O)c3)cc2n1CC(F)(F)F [Compound 40, 7-(3-hydroxyphenyl)-5-(2,2,2-trifluoroethyl)-1,5-dihydro-4H-pyrazolo[4,3-c]quinolin-4-one]",40
11,"O=c1c2cn[nH]c2c2ccc(-c3cc(Cl)cnc3F)cc2n1CC(F)(F)F [Compound 129, 7-(5-chloro-2-fluoropyrid-3-yl)-5-(2,2,2-trifluoroethyl)-1,5-dihydro-4H-pyrazolo[4,3-c]quinolin-4-one]",36
12,"O=c1c2cn[nH]c2c2ccc(-c3cncnc3-c3ccccc3)cc2n1CC(F)(F)F [Compound 160, 7-(4-phenylpyrimidin-5-yl)-5-(2,2,2-trifluoroethyl)-1,5-dihydro-4H-pyrazolo[4,3-c]quinolin-4-one]",40
13,"CC(C)c1ncncc1-c1ccc2c3[nH]ncc3c(=O)n(CC(F)(F)F)c2c1 [Compound 162, 7-(4-isopropylpyrimidin-5-yl)-5-(2,2,2-trifluoroethyl)-1,5-dihydro-4H-pyrazolo[4,3-c]quinolin-4-one]",38
14,"CCn1c(=O)c2cn[nH]c2c2ccc(-c3ccc(C(C)N4CCCC4)cc3)cc21 (stereo not shown) [Compound 22, 5-ethyl-7-[4-(1-pyrrolidin-1-yl-ethyl)phenyl]-1,5-dihydro-4H-pyrazolo[4,3-c]quinolin-4-one]",69
15,"Cc1cc(-c2ccc3c4[nH]ncc4c(=O)n(CC(F)(F)F)c3c2)cnc1-n1cnnc1 [Compound 139, 7-(5-methyl-6-[1,2,4]triazol-4-ylpyrid-3-yl)-5-(2,2,2-trifluoroethyl)-1,5-dihydro-4H-pyrazolo[4,3-c]quinolin-4-one]",44
16,"CCN(CC)S(=O)(=O)c1ccccc1-c1ccc2c3[nH]ncc3c(=O)n(CC(F)(F)F)c2c1 [Compound 136, N,N-diethyl-2-[4-oxo-5-(2,2,2-trifluoroethyl)-4,5-dihydro-1H-pyrazolo[4,3-c]quinolin-7-yl]benzenesulfonamide]",45
17,"CCn1c(=O)c2cn[nH]c2c2ccc(-c3ccc(N)cc3C)cc21 [Compound 24, 7-(4-amino-2-methylphenyl)-5-ethyl-1,5-dihydro-4H-pyrazolo[4,3-c]quinolin-4-one]",67
18,"CCn1c(=O)c2cn[nH]c2c2ccc(-c3ccc(C(=O)N4CCNCC4)cc3)cc21 [Compound 18, 5-ethyl-7-[4-(piperazine-1-carbonyl)phenyl]-1,5-dihydro-4H-pyrazolo[4,3-c]quinolin-4-one]",72
19,"O=c1c2cn[nH]c2c2ccc(-c3cc(Cl)cnc3Cl)cc2n1CC(F)(F)F [Compound 57, 7-(2,5-dichloropyrid-3-yl)-5-(2,2,2-trifluoroethyl)-1,5-dihydro-4H-pyrazolo[4,3-c]quinolin-4-one]",38
20,"CCn1c(=O)c2cn[nH]c2c2ccc(-c3ccc(CNC(C)=O)cc3)cc21 [Compound 38, N-[4-(5-ethyl-4-oxo-4,5-dihydro-1H-pyrazolo[4,3-c]quinolin-7-yl)benzyl]acetamide]",60

# Tested on: HUVEC cells
# Assay: Test of in vitro proliferation of HUVEC cells induced with FGF-2
# Conditions: Homo sapiens, read-out: HUVEC Proliferation IC50 (M)
# Procedure: Test of In Vitro Proliferation of HUVEC Cells Induced with Fibroblast Growth Factor 2 (FGF-2).
# After incubation for 48 hours, the medium is aspirated and replaced with the deprivation medium RPMI1640 mentioned previously. A second stimulation is then performed. The cells are again incubated at 37° C. in the presence of CO2. After incubation for 72 hours, the medium is again aspirated and 100 μl of Cell Titer-GLO™ Luminescent Cell Viability Assay (Promega, G7571) are added over 10 minutes. The amount of ATP present in the cells, measured using a luminometer, is proportional to the number cells per well corresponding to the cell proliferation.
row,Structure (SMILES),IC50 [M]
1,"O=c1c2cn[nH]c2c2ccc(-c3ccccc3F)cc2n1CC(F)(F)F [Compound 3, 7-(2-fluorophenyl)-5-(2,2,2-trifluoroethyl)-1,5-dihydro-4H-pyrazolo[4,3-c]quinolin-4-one]",6.6e-07
2,"Cc1cc(-c2ccc3c4[nH]ncc4c(=O)n(CC(F)(F)F)c3c2)ccn1 [Compound 186, 7-(2-methylpyrid-4-yl)-5-(2,2,2-trifluoroethyl)-1,5-dihydro-4H-pyrazolo[4,3-c]quinolin-4-one]",3.6e-07
